# Experimental data from patent US20090191173A1, “Induction Of Neurogenesis And Stem Cell Therapy In Combination With Copolymer 1” (priority 2004, published 2009).
# Key:
# aNPCs = experiment: Neuronal differentiation of aNPCs with CD4+ T cells, T cell-conditioned medium or cytokines; assay type: cell-based, mouse; settings: 5 days in culture with cytokine, concentrations as low as 1 ng/ml
# Procedure: (xvii) Co-culturing of neural progenitor cells and T cells. CD4+ T cells were purified from lymph nodes of 8-week-old C57B16/J mice as previously described (Kipnis et al., 2004). T cells were activated in RPMI medium supplemented with L-glutamine (2 mM), 2-mercaptoethanol (5×10^−5 M), sodium pyruvate (1 mM), penicillin (100 IU/ml), streptomycin (100 μg/ml), nonessential amino acids (1 ml/100 ml), and autologous serum 2% (v/v) in the presence of mouse recombinant IL-2 (mrIL-2; 5 ng/ml) and soluble anti-CD28 and anti-CD3. antibodies (1 ng/ml). T cells were co-cultured (5×10^4 cells/well) with aNPCs (5×10^4 cells/well) for 5 d on cover slips coated with Matrigel (BD Biosciences) in 24-well plates. The cultures were then fixed with 2.5% paraformaldehyde in PBS for 30 min at room temperature and stained for neuronal markers.
# We therefore sought to determine whether direct interaction between aNPCs and T cells would also result in an altered pattern of aNPC differentiation. To address this question, we activated CD4+ T cells in vitro by a cognate protocol (with anti-CD3 antibodies, anti-CD28 antibodies, and IL-2) for 24 h and then allowed their activation to continue in co-cultures with aNPCs in a transwell culture system. […] After 5 days in culture the aNPCs in the lower chamber were fixed and analyzed for the appearance of newly formed neurons. […]
# microglia = experiment: TNF-α and IGF-I expression in treated microglia (RT-PCR, immunocytochemistry); assay type: cell-based, mouse; settings: IFN-γ 20 ng/ml
# Text: (vi) Immunocytochemistry. Cover slips from co-cultures of NPCs and mouse microglia were washed with PBS, fixed as described above, treated with a permeabilization/blocking solution containing 10% FCS, 2% bovine serum albumin, 1% glycine, and 0.1% Triton X-100 (Sigma-Aldrich, Rehovot) and stained with a combination of the mouse or rabbit anti-tubulin β-III-isoform C-terminus antibodies (β-III-tubulin; 1:500), rabbit anti-NG2 chondroitin sulfate proteoglycan (NG2; 1:500), mouse anti-RIP (RIP; 1:2000), mouse anti-galactocerebroside (GalC; 1:250), mouse anti-glutamic acid decarboxylase 67 (GAD; 1:1000), mouse anti-nestin (Nestin; 1:1000), rat anti-myelin basic protein (MBP; 1:300) (all from Chemicon, Temecula, Calif.), goat anti-double cortin (DCX; 1:400, Santa Cruz Biotechnology, Santa Cruz, Calif.) and mouse anti-glial fibrillary acidic protein (GFAP; 1:100, Sigma-Aldrich, St. Louis). […] Expression of IGF-1 was detected by goat anti-IGF-1 (1:20, R&D Systems). […]
# We assayed the expression of specific mRNAs using semi-quantitative reverse transcription PCR (RT-PCR) with selected gene-specific primer pairs, using OLIGO v6.4 (Molecular Biology Insights, Cascade, Colo.).
# The RT-PCR reactions were carried out using 1 μg of cDNA, […] of each primer, and ReadyMix PCR Master Mix (ABgene, Epsom, UK) in 30-μl reactions. […] Signals were quantified using a Gel-Pro analyzer 3.1 (Media Cybernetics).
substance,measurement,setting,value
IFN-γ: recombinant interferon-γ,β-III-tubulin expression in aNPCs,aNPCs,could induce an increase in β-III-tubulin expression
same,IGF-I mRNA in microglia as a function of time,microglia,down-regulation of IGF-I
same,TNF-α production by microglia as a function of time,microglia,transient increase in TNF-α production
